# From ChEMBL document CHEMBL1201862, “PubChem BioAssay data set” (2004)
# Calls of active or inactive are those of the source.
# Assays:
# [1] = test system: H4; assay: Luminescence Cell-Based Dose Response HTS to Identify Activators of 5'UTR Stem-Loop Driven Prion Protein mRNA Translation in H4 Neuroglioblastoma Cells. [Related pubchem assays: 1829 (Project Summary), 1814 (Primary HTS)]; assay type: functional; details: Homo sapiens
# [2] = Luminescence Cell-Based Dose Response HTS to Identify Activators of Luciferase Translation or Activity in H4 […] Cells. [Related pubchem assays: 1829 (Project Summary), 1814 (Primary HTS)]; assay type: functional
# [3] = molecular target: T1, Rac GTPase-activating protein 1 (Homo sapiens, UniProt Q9H0H5); assay: MgcRacGAP GTPase-activating activity inhibitors, confirmation, biochemical, ADP Hunter fluorescence, primary and confirmatory (AID 624330); assay type: functional
# T1 sequence (Q9H0H5 whole entry): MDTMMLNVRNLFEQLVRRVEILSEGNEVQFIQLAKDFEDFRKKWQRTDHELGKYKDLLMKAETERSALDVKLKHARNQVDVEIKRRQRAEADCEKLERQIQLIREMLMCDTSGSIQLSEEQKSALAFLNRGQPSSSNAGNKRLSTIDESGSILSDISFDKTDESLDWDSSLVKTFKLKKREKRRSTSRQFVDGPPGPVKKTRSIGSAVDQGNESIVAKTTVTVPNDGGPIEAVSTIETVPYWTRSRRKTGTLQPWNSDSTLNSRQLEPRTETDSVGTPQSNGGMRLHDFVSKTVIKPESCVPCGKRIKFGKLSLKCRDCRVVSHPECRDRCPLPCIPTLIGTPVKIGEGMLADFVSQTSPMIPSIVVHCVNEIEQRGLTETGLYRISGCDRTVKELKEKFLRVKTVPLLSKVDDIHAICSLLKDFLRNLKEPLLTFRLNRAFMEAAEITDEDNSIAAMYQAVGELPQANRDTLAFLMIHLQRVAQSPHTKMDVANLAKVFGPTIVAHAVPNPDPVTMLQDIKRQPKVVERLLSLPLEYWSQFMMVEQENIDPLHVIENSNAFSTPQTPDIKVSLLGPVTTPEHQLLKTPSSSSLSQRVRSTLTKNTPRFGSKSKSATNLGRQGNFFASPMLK
# [4] = Luminescence Cell-Based Dose Response HTS to Identify Inhibitors of 5'UTR Stem-Loop Driven Prion Protein mRNA Translation in H4 Neuroglioblastoma Cells. [Related pubchem assays: 1827 (Project Summary), 1813 (Primary HTS)]; assay type: functional
# [5] = inhibitors of firefly luciferase expression or activity, dose response, H4 neuroglioma cells, luminescence (AID 1990); assay type: functional, cell-based
# [6] = inhibitors of SNCA 5'UTR-driven reporter translation, confirmation, H4 neuroglioma cells, luminescence (AID 1988); assay type: functional, cell-based
# [7] = inhibitors of intracellular T. cruzi replication, confirmation, NIH3T3 host cells, beta-gal luminescence (AID 2044); assay type: functional, cell-based;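 further: intracellular parasites grown in NIH/3T3 mouse fibroblasts as host cells; luminescent beta-galactosidase reporter signal from transgenic T. cruzi replicating inside host cells; inhibitors lower the luminescence signal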
# [8] = growth suppression of beta-catenin-knockout colon cells, dose response, cell-based, HCT116, human colon tumor (AID 1045); assay type: functional;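 further: HCT116 colon tumor cells with beta catenin knocked out; cells exposed to compound for 60 hours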
# [9] = growth suppression of PTEN-null colon cells, dose response, cell-based, HCT116 PTEN knockout (AID 1047); assay type: functional;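 further: HCT116 colon tumor cells with PTEN knocked out; cells exposed to compound for 60 hours before readout; potency for loss of cell viability measured by luminescence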
# [10] = cytotoxicity toward NIH3T3 fibroblasts, dose response, counter-screen, cell-based, ATP luminescence, mouse fibroblasts (AID 2010); assay type: functional;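 further: cells exposed to compound for about 90 hours before reading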
# [11] = test system: Streptococcus; assay: Group A Streptococcus viability loss, dose response, counter-screen for streptokinase expression inhibitor project, luminescence, BacTiterGlo (AID 1915); assay type: functional, organism-based;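 further: potency for reduction of bacterial viability or growth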
# [12] = molecular target: T2, Streptokinase A (Streptococcus pyogenes serotype M1, UniProt P10520); assay: S. pyogenes streptokinase expression inhibitors, potency, dose response, plasminogen activation absorbance, OD405 (AID 1914); assay type: functional, Streptococcus pyogenes M1 GAS;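 further: secreted streptokinase activity via plasminogen activation per viability signal from cell pellet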
# T2 sequence (P10520 whole entry): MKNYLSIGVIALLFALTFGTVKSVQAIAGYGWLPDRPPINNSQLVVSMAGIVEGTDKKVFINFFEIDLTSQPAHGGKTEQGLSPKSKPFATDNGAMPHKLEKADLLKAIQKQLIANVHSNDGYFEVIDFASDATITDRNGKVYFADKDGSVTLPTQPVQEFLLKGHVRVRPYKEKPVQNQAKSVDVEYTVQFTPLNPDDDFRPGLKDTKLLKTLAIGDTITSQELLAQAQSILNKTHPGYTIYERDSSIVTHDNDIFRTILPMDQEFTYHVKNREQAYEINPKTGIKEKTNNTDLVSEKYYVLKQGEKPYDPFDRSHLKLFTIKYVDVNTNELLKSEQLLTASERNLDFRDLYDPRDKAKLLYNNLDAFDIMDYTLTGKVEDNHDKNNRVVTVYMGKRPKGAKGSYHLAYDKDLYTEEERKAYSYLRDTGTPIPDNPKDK
# [13] = test system: Streptococcus sp. 'group A'; assay: growth inhibition of control SK(-) GAS strain, dose response, counter-screen for streptokinase expression inhibitor project, luminescence, kanamycin, BacTiterGlo, confirmation (AID 1900); assay type: functional, organism-based
# [14] = molecular target: Cytochrome P450 2C19 (Homo sapiens, UniProt P33261); assay: Cytochrome panel assay with activity outcomes. Panel member name: p450-cyp2c19 Compounds with AC50 equal or less than 10 uM are considered active; assay type: functional
# Sequence of Cytochrome P450 2C19 (P33261 whole entry): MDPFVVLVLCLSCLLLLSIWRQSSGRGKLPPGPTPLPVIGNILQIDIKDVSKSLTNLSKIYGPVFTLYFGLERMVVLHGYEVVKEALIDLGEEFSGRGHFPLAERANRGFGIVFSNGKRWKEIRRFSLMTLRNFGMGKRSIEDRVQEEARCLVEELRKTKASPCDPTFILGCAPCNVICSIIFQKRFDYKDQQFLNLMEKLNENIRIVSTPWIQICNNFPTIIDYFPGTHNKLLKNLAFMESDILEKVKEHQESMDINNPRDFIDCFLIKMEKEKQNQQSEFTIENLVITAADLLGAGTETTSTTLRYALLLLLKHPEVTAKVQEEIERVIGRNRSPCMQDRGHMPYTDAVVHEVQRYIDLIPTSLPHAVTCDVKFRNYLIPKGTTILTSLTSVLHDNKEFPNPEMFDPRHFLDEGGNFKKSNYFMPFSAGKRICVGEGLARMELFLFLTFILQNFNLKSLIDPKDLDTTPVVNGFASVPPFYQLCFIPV
# [15] = Luminescence Cell-Based Dose Retest to Confirm Inhibitors of Cancer Stem Cells. [Related pubchem assays (depositor defined):AID2717, AID2721]; assay type: functional; details: Homo sapiens
structure (smiles),measurement,setting,value
Cn1cccc1CNC(=O)Nc1ccc(Cl)c(Cl)c1,EC50,[1],> 120 µM (not active)
same,EC50,[2],1.66 µM (active)
CCN1CCN(CC(=O)Nc2cc(C(F)(F)F)ccc2OCCOC)CC1,IC50,[3],48.5 µM (active)
COc1ccccc1NC(=O)CSc1nnc(COc2ccc(Cl)cc2)n1Cc1ccco1,EC50,[4],> 120 µM (not active)
same,EC50,[5],> 120 µM (not active)
same,EC50,[6],48 µM (active)
Cc1cccc(C)c1OCc1nc2ccccc2c(=O)n1/N=C/c1c[nH]c2ccccc12,EC50,[7],1.14 µM (active)
same,EC50,[8],24.7 µM (active)
same,EC50,[9],23.6 µM (active)
same,EC50,[10],> 30 µM (not active)
CCOC(=O)N1CCN(C(=O)c2ccc3c(c2)N(C)C(=O)/C(=C\c2ccc(OCC)c(OC)c2)S3)CC1,EC50,[11],4.57 µM (active)
same,EC50,[12],> 150 µM (not active)
same,EC50,[13],0.624 µM (active)
Cc1ccc(CN2CCN(Cc3ccccc3F)CC2)cc1,IC50,[3],76.6 µM (active)
COc1cccc(CNCc2ccccc2Br)c1OC,IC50,[3],145 µM (active)
COc1cccc(-c2nc(NCCNC(C)=O)c3ccccc3n2)c1,AC50,[14]; read-out: AC50,15.8 µM (inconclusive)
COCCn1c(=O)c(CCc2ccccc2)nc2cnc(N3CCN(C)CC3)nc21,AC50,[14]; read-out: AC50,10 µM (inconclusive)
Cc1ccc(NCCCCO)cc1C,IC50,[3],35.9 µM (active)
CC(C)=CCc1c(-c2ccc(O)cc2O)oc2cc3c(c(O)c2c1=O)C=CC(C)(C)O3 [CUDRAFLAVONE B],EC50,[11],4.94 µM (active)
same,EC50,[12],> 150 µM (not active)
same,EC50,[13],3.36 µM (active)
C=CCn1c(SCC(=O)Nc2ccc(O)cc2)nc2sc(CC)cc2c1=O,IC50,[3],54.5 µM (active)
COc1cccc(CN2CCC(C(=O)N3CCC(C)CC3)CC2)c1,IC50,[3],162 µM (active)
COc1ccc(-c2nc(/C=C3\C(C)=Nc4ccccc43)c(O)o2)cc1,EC50,[11],12.1 µM (active)
same,EC50,[12],> 150 µM (not active)
same,EC50,[13],3.54 µM (active)
NCCS(=O)(=O)NC1CCCCC1,EC50,[11],> 150 µM (not active)
same,EC50,[12],> 150 µM (not active)
same,EC50,[13],> 150 µM (not active)
CCSc1nnc(-c2cccnc2)n1-c1ccc(C)c(Cl)c1,EC50,[4],> 120 µM (not active)
same,EC50,[5],> 120 µM (not active)
same,EC50,[6],> 120 µM (not active)
CC(C)(C)c1cc(-c2ccco2)c(C#N)c(SCC#N)n1,EC50,[4],> 120 µM (not active)
same,EC50,[5],16 µM (active)
same,EC50,[6],15.2 µM (active)
CCOc1ccc(-n2c([S-])c(C(=O)Nc3ccc(S(=O)(=O)N4CCOCC4)cc3)[n+]3cc(C(N)=O)ccc23)cc1,EC50,[4],> 120 µM (not active)
same,EC50,[5],24.1 µM (active)
same,EC50,[6],17.5 µM (active)
O=C(c1ccc(F)cc1)N1CCN(C2CCCCC2)CC1,IC50,[3],196 µM (active)
CCCn1cnc2cc(NCc3cccs3)ccc21,EC50,[1],13.4 µM (active)
same,EC50,[2],11.8 µM (active)
CC(C)(C)CC(C)(C)NCC(=O)Nc1c2c(nc3ccccc13)CCC2,IC50,[3],88.7 µM (active)
CC(OC(=O)CC1CCCC1)C(=O)Nc1ccc(S(N)(=O)=O)cc1 (configuration not stated),EC50,[11],> 150 µM (not active)
same,EC50,[12],> 150 µM (not active)
same,EC50,[13],> 150 µM (not active)
CN1CCC(=C2c3ccccc3CCc3sccc32)CC1,AC50,[14]; read-out: AC50,3.98 µM (inconclusive)
Cc1cccn2c(O)c(C(=O)NC3CC(C)CC(C)(C)C3)c(=O)nc12 (configuration not stated),EC50,[4],2.59 µM (active)
same,EC50,[5],13.1 µM (active)
same,EC50,[6],16.3 µM (active)
O=C(O)Cc1sc(-c2ccc(Cl)cc2)nc1-c1ccccc1,AC50,[14]; read-out: AC50,14.1 µM (inconclusive)
CC(=O)NC[C@H]1CN(c2ccc(N3CCOCC3)c(F)c2)C(=O)O1 [LINEZOLID],EC50,[11],0.645 µM (active)
same,EC50,[12],6 µM (inconclusive)
same,EC50,[13],0.17 µM (active)
COc1ccc(Oc2c(Cl)cnn(-c3ccc(Cl)c(Cl)c3)c2=O)cc1,AC50,[15],4.57 µM (active)
same,EC50,[4],13.4 µM (active)
same,EC50,[5],15 µM (active)
same,EC50,[8],10.8 µM (active)
same,EC50,[9],91.6 µM (active)
same,EC50,[6],8.46 µM (active)
N#CC1=C(N)OC2=C(CCc3ccccc32)C1c1ccccc1Cl (configuration not stated),EC50,[11],18.9 µM (active)
same,EC50,[12],11.9 µM (active)
same,EC50,[13],4.61 µM (active)
CC(C)CNCCc1ccccn1,AC50,[14],inconclusive
CCC(C)c1ccccc1NS(=O)(=O)c1cnn(CC)c1 (configuration not stated),EC50,[11],> 150 µM (not active)
same,EC50,[12],> 150 µM (not active)
same,EC50,[13],> 150 µM (not active)
O=C(O)CC[C@@H](C(=O)O)N1C(=O)[C@@H]2[C@@H]3CC[C@H](C3)[C@@H]2C1=O,AC50,[14],inconclusive
O=C(NCCCN1CCCC1=O)c1ccc(CNS(=O)(=O)c2ccc(F)cc2)cc1,AC50,[14]; read-out: AC50,39.8 µM (inconclusive)
CCCCC(=O)Nc1nc(C)c(-c2csc(Nc3cc(OC)ccc3OC)n2)s1,AC50,[15],1.35 µM (active)
same,EC50,[4],18.2 µM (active)
same,EC50,[5],12.2 µM (active)
same,EC50,[6],7.93 µM (active)
COc1cc(/C=N/NC(=O)c2ccccc2NS(=O)(=O)c2cccs2)ccc1O,IC50,[3],74.5 µM (active)
COc1ccc(O)c(C(=O)c2coc(=N)c(C(=O)Nc3ccc(SC(F)F)cc3)c2)c1,EC50,[11],> 150 µM (not active)
same,EC50,[12],> 150 µM (not active)
same,EC50,[13],40.6 µM (active)
CCOC(=O)c1[nH]c2ccccc2c1N=C(S)Nc1cc(C)ccc1C,IC50,[3],77.5 µM (active)
Cc1cc(-c2nnc(S)n2/N=C/c2ccc(Br)s2)[nH]n1,IC50,[3],91.6 µM (active)
O=S(=O)(Nc1cc(O)nc(SCc2ccccc2Cl)n1)c1ccccc1,EC50,[4],> 120 µM (not active)
same,EC50,[5],> 120 µM (not active)
same,EC50,[6],12.8 µM (active)
O=C(Cc1csc(Nc2[nH]c(=S)nc3ccccc23)n1)NCCCN1CCN(c2cccc(Cl)c2)CC1,EC50,[12],> 150 µM (not active)
CCCS(=O)(=O)N1CCN(CC2CC3C=CC2C3)CC1 (configuration not stated),IC50,[3],205 µM (active)
CCOC(=O)c1c(NC(=O)c2c(N)n(CCCOC)c3nc4ccccc4nc23)sc2c1CCCC2,EC50,[11],25.1 µM (active)
same,EC50,[12],> 150 µM (not active)
same,EC50,[7],2.74 µM (active)
same,EC50,[13],4.29 µM (active)
same,EC50,[10],> 60 µM (not active)
CN(C)c1ccc(N/C=C/C(=O)C(C)(C)C)cc1,IC50,[3],7.98 µM (active)
OCCCCC#Cc1c(-c2ccsc2)sc2ccccc12,EC50,[11],8.45 µM (active)
same,EC50,[12],> 150 µM (not active)
same,AC50,[15],3.15 µM (active)
same,EC50,[13],6.64 µM (active)
O=C(c1cnn2c(C(F)(F)F)cc(-c3ccccc3)nc12)N1CCCCC1c1cccnc1 (configuration not stated),EC50,[4],75.7 µM (active)
same,EC50,[5],> 120 µM (not active)
same,EC50,[7],0.506 µM (active)
same,EC50,[6],> 120 µM (not active)
same,EC50,[10],> 60 µM (not active)
Cc1ccc(Oc2cc(N3CCOCC3)nc(-c3ccccc3)n2)cc1,AC50,[14]; read-out: AC50,2.24 µM (inconclusive)
CN(C)c1ccc(C2C=C(c3ccc(Cl)cc3OC(F)F)Nc3ncnn32)cc1 (configuration not stated),EC50,[11],16.4 µM (active)
same,EC50,[12],> 150 µM (not active)
same,EC50,[13],9.65 µM (active)
